Laboratory results reported in ChEMBL document CHEMBL1122352, “Synthesis and antitumor activity of 2-beta-D-ribofuranosylselenazole-4-carboxamide and related derivatives” (1983).

What was measured:
Assay type in all cases: functional
Mus musculus [1] = assay: Evaluated for increase in life span in mice inoculated with lewis lung carcinoma at a dose of 100 mg/kg (Experiment-1)
Mus musculus [2] = assay: Evaluated for increase in life span in mice inoculated with lewis lung carcinoma at a dose of 50 mg/kg (Experiment-1)
Mus musculus [3] = assay: Evaluated for increase in life span in mice inoculated with lewis lung carcinoma at a dose of 24 mg/kg (Experiment-2)
Mus musculus [4] = assay: Evaluated for median life span in mice inoculated with lewis lung carcinoma at a dose of 200 mg/kg (Experiment-1)
Mus musculus [5] = assay: Evaluated for increase in life span in mice inoculated with lewis lung carcinoma at a dose of 12 mg/kg (Experiment-1)
Mus musculus [6] = assay: Evaluated for increase in life span in mice inoculated with lewis lung carcinoma at a dose of 3 mg/kg (Experiment-2)
Mus musculus [7] = assay: Evaluated for increase in life span in mice inoculated with lewis lung carcinoma at a dose of 25 mg/kg (Experiment-1)
Mus musculus [8] = assay: Evaluated for median life span in mice inoculated with lewis lung carcinoma at a dose of 3 mg/kg (Experiment-2)
Mus musculus [9] = assay: Evaluated for median life span in mice inoculated with lewis lung carcinoma at a dose of 6 mg/kg (Experiment-2)
P388 = assay: Evaluated for cytotoxicity against P-388 cells; conditions: Mus musculus, read-out: ID50 (the source's name)
Mus musculus [10] = assay: Evaluated for median life span in mice inoculated with lewis lung carcinoma at a dose of 12 mg/kg (Experiment-1)
Mus musculus [11] = assay: Evaluated for median life span in mice inoculated with lewis lung carcinoma at a dose of 12 mg/kg (Experiment-2)
L1210 [12] = assay: Evaluated for cytotoxicity against L1210 cells; conditions: Mus musculus, read-out: ID50 (the source's name)
Mus musculus [13] = assay: Evaluated for increase in life span in mice inoculated with lewis lung carcinoma at a dose of 1.5 mg/kg (Experiment-2)
Mus musculus [14] = assay: Evaluated for increase in life span in mice inoculated with lewis lung carcinoma at a dose of 6 mg/kg (Experiment-2)
Mus musculus [15] = assay: Evaluated for median life span in mice inoculated with lewis lung carcinoma at a dose of 50 mg/kg (Experiment-1)
Mus musculus [16] = assay: Evaluated for median life span in mice inoculated with lewis lung carcinoma at a dose of 100 mg/kg (Experiment-1)
Mus musculus [17] = assay: Evaluated for median life span in mice inoculated with lewis lung carcinoma at a dose of 1.5 mg/kg (Experiment-2)
Mus musculus [18] = assay: Evaluated for median life span in mice inoculated with lewis lung carcinoma at a dose of 24 mg/kg (Experiment-2)
Mus musculus [19] = assay: Evaluated for median life span in mice inoculated with lewis lung carcinoma at a dose of 25 mg/kg (Experiment-1)
Mus musculus [20] = assay: Evaluated for increase in life span in mice inoculated with lewis lung carcinoma at a dose of 12 mg/kg (Experiment-2)
Mus musculus [21] = assay: Evaluated for median life span in mice inoculated with lewis lung carcinoma at a dose of 13 mg/kg
Mus musculus [22] = assay: Evaluated for median life span in mice inoculated with lewis lung carcinoma at a dose of 75 mg/kg
Mus musculus [23] = assay: Evaluated for median life span in mice inoculated with lewis lung carcinoma at a dose of 50 mg/kg
Mus musculus [24] = assay: Evaluated for median life span in mice inoculated with lewis lung carcinoma at a dose of 9 mg/kg
L1210 [25] = assay: Evaluated for cytotoxicity to L1210 cells; conditions: Mus musculus, read-out: ID50 (the source's name)
Mus musculus [26] = assay: Evaluated for median life span in mice inoculated with lewis lung carcinoma at a dose of 20 mg/kg
Mus musculus [27] = assay: Evaluated for median life span in mice inoculated with lewis lung carcinoma at a dose of 33 mg/kg
Mus musculus [28] = assay: Evaluated for increase in life span in mice inoculated with lewis lung carcinoma at a dose of 13 mg/kg

For NC(=O)c1c[se]c([C@@H]2O[C@H](CO)[C@@H](O)[C@H]2O)n1, the ILS at 100 mg/kg (Mus musculus [1]) was 20%, the ILS at 50 mg/kg (Mus musculus [2]) was 255% and the ILS at 24 mg/kg (Mus musculus [3]) was 197%. It also gave an MLS (Mus musculus [4]) of 10.7 days, an ILS at 12 mg/kg (Mus musculus [5]) of 255% and an ILS at 3 mg/kg (Mus musculus [6]) of 53%. It also gave an ILS at 25 mg/kg (Mus musculus [7]) of 255%, an MLS (Mus musculus [8]) of 31 days and an MLS (Mus musculus [9]) of 60 days. The IC50 (P388) was 300 nM, the MLS (Mus musculus [10]) was 60 days and the MLS (Mus musculus [11]) was 60 days. The IC50 (L1210 [12]) was 400 nM, the ILS at 1.5 mg/kg (Mus musculus [13]) was 10% and the ILS at 6 mg/kg (Mus musculus [14]) was 197%. It also gave an MLS (Mus musculus [15]) of 60 days, an MLS (Mus musculus [16]) of 20.3 days and an MLS (Mus musculus [17]) of 22 days. For the same molecule, the MLS (Mus musculus [18]) was 60 days, the MLS (Mus musculus [19]) was 60 days and the ILS at 12 mg/kg (Mus musculus [20]) was 197%.
NC(=O)c1c[se]c([C@@H]2O[C@H](COP(=O)(O)O)[C@@H](O)[C@H]2O)n1 gave an MLS (Mus musculus [21]) of 60 days, an MLS (Mus musculus [22]) of 15.5 days and an MLS (Mus musculus [23]) of 12.5 days. It also gave an MLS (Mus musculus [24]) of 12.5 days, an IC50 (L1210 [25]) of 390 nM and an MLS (Mus musculus [26]) of 12 days. For the same molecule, the MLS (Mus musculus [27]) was 12.5 days and the ILS at 13 mg/kg (Mus musculus [28]) was 215%.
For NC(=O)c1csc([C@@H]2O[C@H](CO)[C@@H](O)[C@H]2O)n1 [TIAZOFURIN], the IC50 (L1210 [12]) was 1950 nM.
